Source: US12397031B2, “Lonicera japonica flower water extract-containing pharmaceutical composition for preventing or treating Helicobacter pylori infection” (GREEN CROSS WELLBEING CORPORATION, priority 2018, dated 2025)

Key:
Helicobacter pylori = experiment: Selective antibacterial effect on Helicobacter pylori versus Escherichia coli and Staphylococcus aureus; format: cell-based; conditions: under the same condition
[1] = system: Helicobacter pylori (ATCC43504) strain; experiment: Antibacterial activity on Helicobacter pylori, paper disc clear zone; format: cell-based; conditions: 20 μl on 6 mm paper disc, 72 hours, pure inhibition zone
Experimental: A Helicobacter pylori (ATCC43504) strain was smeared in a Brucella Agar medium containing 10% horse serum, and cultured for 3 days in an incubator of 37° C. and 10% CO: conditions. […] The Examples and Comparative Examples were cultured for 72 hours in an incubator of 37° C. and 10% CO: conditions, and then diameters of generated clear zones were measured and diameters of pure inhibition zones removing perforated diameters were shown in Table 3.

C=C[C@H]1[C@H](O[C@@H]2O[C@H](CO)[C@@H](O)[C@H](O)[C@H]2O)OC=C(C(=O)OC)[C@H]1CC(=O)O [Secoxyloganin, secoxyloganin]
selective antibacterial effect on Helicobacter pylori than the antibacterial effect on Escherichia coli and Staphylococcus aureus (Helicobacter pylori): ≥ 20 times | Clear zone (mm) ([1]; 0.1 mg/ml): 5 mm | Clear zone (mm) ([1]; 1 mg/ml): 9 mm | Clear zone (mm) ([1]; 10 mg/ml): 13 mm
